Measurements as given in ChEMBL document CHEMBL1201862, “PubChem BioAssay data set” (2004).
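Assay format: 96-well plates, 48-hour exposure. The concentration for 50% growth inhibition is given as GI50.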 Activity calls are given as the source filed them. No stated cut-off is given here; in the data, active = GI50 up to about 1.1 µM and inactive = higher.

Legend:
Assay in all cases: NCI anticancer screen, dose series, 48 h
786-0 = test system: 786-0
A498 = test system: A498
A549 = test system: A549
ACHN = test system: ACHN
BT-549 = test system: BT-549
CAKI-1 = test system: CAKI-1
CCRF-CEM = test system: CCRF-CEM
COLO 205 = test system: COLO 205
DU-145 = test system: DU-145
EKVX = test system: EKVX
HCC 2998 = test system: HCC 2998
HCT-116 = test system: HCT-116
HCT-15 = test system: HCT-15
HL-60 = test system: HL-60
HOP-62 = test system: HOP-62
HT-29 = test system: HT-29
Hs-578T = test system: Hs-578T
IGROV-1 = test system: IGROV-1
K562 = test system: K562
KM12 = test system: KM12
LOX IMVI = test system: LOX IMVI
M14 = test system: M14
MCF7 = test system: MCF7
MDA-MB-231 = test system: MDA-MB-231
MDA-MB-435 = test system: MDA-MB-435
MDA-N = test system: MDA-N
Malme-3M = test system: Malme-3M
NCI-H226 = test system: NCI-H226
NCI-H23 = test system: NCI-H23
NCI-H460 = test system: NCI-H460
NCI-H522 = test system: NCI-H522
NCI/ADR-RES = test system: NCI/ADR-RES
OVCAR-3 = test system: OVCAR-3
OVCAR-4 = test system: OVCAR-4
OVCAR-5 = test system: OVCAR-5
OVCAR-8 = test system: OVCAR-8
PC-3 = test system: PC-3
RPMI-8226 = test system: RPMI-8226
RXF 393 = test system: RXF 393
SF-268 = test system: SF-268
SF-295 = test system: SF-295
SK-MEL-28 = test system: SK-MEL-28
SK-MEL-2 = test system: SK-MEL-2
SK-MEL-5 = test system: SK-MEL-5
SK-OV-3 = test system: SK-OV-3
SN12C = test system: SN12C
SNB-19 = test system: SNB-19
SNB-75 = test system: SNB-75
SR = test system: SR
SW-620 = test system: SW-620
T47D = test system: T47D
TK-10 = test system: TK-10
U-251 = test system: U-251
UACC-257 = test system: UACC-257
UACC-62 = test system: UACC-62
UO-31 = test system: UO-31
HOP-92 = test system: HOP-92
MOLT-4 = test system: MOLT-4
SF-539 = test system: SF-539

Compound: Cc1nc2cccc([N+](=O)[O-])c2n1CCCN(C)C
- GI50 (786-0): > 100 µM (inactive)
- GI50 (A498): > 100 µM (inactive)
- GI50 (A549): > 100 µM (inactive)
- GI50 (ACHN): > 100 µM (inactive)
- GI50 (BT-549): > 100 µM (inactive)
- GI50 (CAKI-1): > 100 µM (inactive)
- GI50 (CCRF-CEM): > 100 µM (inactive)
- GI50 (COLO 205): > 100 µM (inactive)
- GI50 (DU-145): > 100 µM (inactive)
- GI50 (EKVX): > 100 µM (inactive)
- GI50 (HCC 2998): > 100 µM (inactive)
- GI50 (HCT-116): > 100 µM (inactive)
- GI50 (HCT-15): > 100 µM
- GI50 (HL-60): > 100 µM (inactive)
- GI50 (HOP-62): > 100 µM (inactive)
- GI50 (HT-29): > 100 µM (inactive)
- GI50 (Hs-578T): > 100 µM (inactive)
- GI50 (IGROV-1): > 100 µM (inactive)
- GI50 (K562): > 100 µM (inactive)
- GI50 (KM12): > 100 µM (inactive)
- GI50 (LOX IMVI): > 100 µM (inactive)
- GI50 (M14): 22.6 µM (inactive)
- GI50 (MCF7): > 100 µM (inactive)
- GI50 (MDA-MB-231): > 100 µM (inactive)
- GI50 (MDA-MB-435): > 100 µM (inactive)
- GI50 (MDA-N): > 100 µM (inactive)
- GI50 (Malme-3M): > 100 µM (inactive)
- GI50 (NCI-H226): > 100 µM (inactive)
- GI50 (NCI-H23): > 100 µM (inactive)
- GI50 (NCI-H460): > 100 µM (inactive)
- GI50 (NCI-H522): > 100 µM (inactive)
- GI50 (NCI/ADR-RES): > 100 µM (inactive)
- GI50 (OVCAR-3): > 100 µM (inactive)
- GI50 (OVCAR-4): > 100 µM (inactive)
- GI50 (OVCAR-5): > 100 µM (inactive)
- GI50 (OVCAR-8): > 100 µM (inactive)
- GI50 (PC-3): > 100 µM (inactive)
- GI50 (RPMI-8226): > 100 µM (inactive)
- GI50 (RXF 393): > 100 µM (inactive)
- GI50 (SF-268): > 100 µM (inactive)
- GI50 (SF-295): > 100 µM (inactive)
- GI50 (SK-MEL-28): > 100 µM (inactive)
- GI50 (SK-MEL-2): > 100 µM (inactive)
- GI50 (SK-MEL-5): > 100 µM (inactive)
- GI50 (SK-OV-3): > 100 µM (inactive)
- GI50 (SN12C): > 100 µM (inactive)
- GI50 (SNB-19): > 100 µM (inactive)
- GI50 (SNB-75): > 100 µM (inactive)
- GI50 (SR): > 100 µM (inactive)
- GI50 (SW-620): > 100 µM (inactive)
- GI50 (T47D): > 100 µM (inactive)
- GI50 (TK-10): > 100 µM (inactive)
- GI50 (U-251): > 100 µM (inactive)
- GI50 (UACC-257): > 100 µM (inactive)
- GI50 (UACC-62): > 100 µM (inactive)
- GI50 (UO-31): 16.8 µM (inactive)

Compound: Cc1cc2oc(=O)c(Cl)c(Cl)c2c(C)c1Cl
- GI50 (786-0): 3.15 µM (inactive)
- GI50 (A498): 19.9 µM (inactive)
- GI50 (A549): 15.7 µM (inactive)
- GI50 (ACHN): 11.2 µM (inactive)
- GI50 (BT-549): 7.26 µM (inactive)
- GI50 (CAKI-1): 4.74 µM (inactive)
- GI50 (CCRF-CEM): 2.83 µM (inactive)
- GI50 (COLO 205): 2.56 µM (inactive)
- GI50 (DU-145): 14.6 µM (inactive)
- GI50 (EKVX): 14.8 µM (inactive)
- GI50 (HCC 2998): 5.51 µM (inactive)
- GI50 (HCT-116): 3.78 µM (inactive)
- GI50 (HCT-15): 3.5 µM
- GI50 (HL-60): 1.91 µM (inactive)
- GI50 (HOP-62): 24.6 µM (inactive)
- GI50 (HOP-92): 1.58 µM (inactive)
- GI50 (HT-29): 4.78 µM (inactive)
- GI50 (Hs-578T): 2.59 µM (inactive)
- GI50 (IGROV-1): 4.3 µM (inactive)
- GI50 (K562): 1.95 µM (inactive)
- GI50 (KM12): 15.1 µM (inactive)
- GI50 (LOX IMVI): 2.76 µM (inactive)
- GI50 (M14): 10.4 µM (inactive)
- GI50 (MCF7): 5.64 µM (inactive)
- GI50 (MDA-MB-231): 11 µM (inactive)
- GI50 (MDA-MB-435): 4.25 µM (inactive)
- GI50 (MDA-N): 2.92 µM (inactive)
- GI50 (MOLT-4): 2.1 µM (inactive)
- GI50 (Malme-3M): 10.8 µM (inactive)
- GI50 (NCI-H226): 17.3 µM (inactive)
- GI50 (NCI-H23): 6.28 µM (inactive)
- GI50 (NCI-H460): 16.7 µM (inactive)
- GI50 (NCI-H522): 14.3 µM (inactive)
- GI50 (NCI/ADR-RES): 5.5 µM (inactive)
- GI50 (OVCAR-3): 2.58 µM (inactive)
- GI50 (OVCAR-4): 4.28 µM (inactive)
- GI50 (OVCAR-5): 12.1 µM (inactive)
- GI50 (OVCAR-8): 3.28 µM (inactive)
- GI50 (PC-3): 11.4 µM (inactive)
- GI50 (RPMI-8226): 2.35 µM (inactive)
- GI50 (RXF 393): 2.84 µM (inactive)
- GI50 (SF-268): 3.22 µM (inactive)
- GI50 (SF-295): 14.4 µM (inactive)
- GI50 (SF-539): 9.35 µM (inactive)
- GI50 (SK-MEL-28): 15.4 µM (inactive)
- GI50 (SK-MEL-2): 4.44 µM (inactive)
- GI50 (SK-MEL-5): 6.93 µM (inactive)
- GI50 (SK-OV-3): 14.4 µM (inactive)
- GI50 (SN12C): 11.5 µM (inactive)
- GI50 (SNB-19): 11.8 µM (inactive)
- GI50 (SNB-75): 12.4 µM (inactive)
- GI50 (SW-620): 1.37 µM (inactive)
- GI50 (T47D): 5.46 µM (inactive)
- GI50 (TK-10): 14.8 µM (inactive)
- GI50 (U-251): 3.19 µM (inactive)
- GI50 (UACC-257): 15.1 µM (inactive)
- GI50 (UACC-62): 6.71 µM (inactive)
- GI50 (UO-31): 12.7 µM (inactive)
